Assay results taken from the Deep4Chem optical property database.
One block for each molecule: values may come before it.

Assay: solvent given as SMILES

- absorption maximum (in ClC(Cl)Cl): 354 nm
SMILES: c1ccc2c(c1)oc1nc3oc4ccc(-n5c6ccccc6c6cc(-n7c8ccccc8c8ccccc87)ccc65)cc4c3cc12

- absorption maximum (in ClCCl): 390 nm
SMILES: Cc1c(C(=O)c2ccccc2Cl)c2ccc3cccc4c5cccc6ccc1c(c65)c2c34

- absorption maximum (in CC#N): 412 nm
SMILES: F[B-]1(F)OC(c2ccc3c(c2)Cc2ccccc2-3)=CC(c2ccccc2)=[O+]1

- absorption maximum (in ClC(Cl)Cl): 474 nm
SMILES: CC(C)c1cccc(C(C)C)c1-n1c(=O)c2ccc3c4ccc5c(=O)n(-c6c(C(C)C)cccc6C(C)C)c(=O)c6cc7c(-c8ccccn8)nc8cc(c1=O)c2c3c8c7c4c56

- absorption maximum (in CO): 315 nm
SMILES: Cc1ccc(-c2nc(-c3cccc(C#N)c3)[nH]c2-c2ccc(C)cc2)cc1

- absorption maximum (in ClCCl): 504 nm
SMILES: CCCCCCOc1cc(N(CC)CC)ccc1/C=C/C(=C(C#N)C#N)c1ccc2c(c1)c1ccccc1n2CC

- absorption maximum (in ClCCl): 577 nm
SMILES: COC(=O)/C=C/C1=CC2=C(c3c(C)cc(C)cc3C)c3cc(/C=C/C(=O)OC)cn3[B-](F)(F)[N+]2=C1

- absorption maximum (in c1cc(-c2cccc(-n3c4ccccc4c4ccccc43)c2)cc(-n2c3ccccc3c3ccccc32)c1): 374 nm
SMILES: N#Cc1c(-n2c3ccccc3c3ccccc32)nc(-n2c3ccccc3c3ccccc32)c(C#N)c1-c1ccccc1

- absorption maximum (in CCO): 538 nm
- absorption maximum (in O): 549 nm
SMILES: CN(C)c1ccc2c(-c3cc(C(=O)[O-])ccc3C(=O)[O-])c3ccc(=[N+](C)C)cc-3oc2c1

- absorption maximum (in CC#N): 440 nm
- absorption maximum (in ClCCl): 448 nm
SMILES: CC(=O)c1cc(=O)n(C)c2cc(-c3ccc(N(C)C)cc3)sc12

- absorption maximum (in CS(C)=O): 644 nm
SMILES: COc1ccc(-c2c3nc(cc4ccc([nH]4)c(-c4ccc(OC)c(OCC(=O)O)c4)c4nc(cc5ccc2[nH]5)CC4)C=C3)cc1OCC(=O)O

- absorption maximum (in O): 434 nm
SMILES: CC[n+]1c(-c2ccccc2)c2cc(NC(N)=O)ccc2c2ccc(NC(N)=O)cc21

- absorption maximum (in CN(C)C=O): 525 nm
SMILES: NCCCCCCCCCCCCN1C(=O)c2ccc3c4ccc5c6c(ccc(c7ccc(c2c37)C1=O)c64)C(=O)N(c1ccc(O)cc1)C5=O

- absorption maximum (in C1CCOC1): 450 nm
- absorption maximum (in CCCCCC): 440 nm
- absorption maximum (in ClCCl): 462 nm
- absorption maximum (in c1ccccc1): 450 nm
SMILES: O=C1OC(=O)c2ccc(N(c3ccccc3)c3c4ccccc4cc4ccccc34)c3cccc1c23

- absorption maximum (in CO): 568 nm
SMILES: CCN(C)c1ccc(C2=C3C(C)=CC(/C=C/c4ccc(OCCCN=[N+]=[N-])cc4)=[N+]3[B-](F)(F)n3c(C)cc(C)c32)cc1

- absorption maximum (in ClC(Cl)Cl): 663 nm
SMILES: CCOC(=O)/C=C/C1=C(c2ccc(C)cc2)C2=Nc3c(-c4ccc(C)cc4)cc(-c4ccc(C)cc4)n3[B-](F)(F)[N+]2=C1c1ccc(C)cc1

- absorption maximum (in ClCCl): 301 nm
SMILES: N#Cc1ccc(-n2c(-c3ccc(-c4ccc(-n5c6ccccc6c6ccccc65)cc4)s3)nc3c4ccccc4c4ccccc4c32)c2ccccc12

- absorption maximum (in ClCCl): 385 nm
SMILES: COc1ccc(-c2ccc3c(c2)[Si](C)(C)c2cc(-c4ccc(OC)cc4)ccc2C=C3)cc1

- absorption maximum (in O): 304 nm
SMILES: CCCCn1c(-c2ccc(-c3ccc(-c4ccc(-c5n(CCCC)c6cc(C)ccc6[n+]5CCCC)cc4)cc3)cc2)[n+](CCCC)c2ccc(C)cc21

- absorption maximum (in ClC(Cl)Cl): 629 nm
SMILES: Cc1cc(C)c(C2=C3C=CC=[N+]3[B-]3(F)Oc4cc(O)cc5c6ccc(C)cc6c6cc2n3c6c45)c(C)c1 (configuration not stated)

- absorption maximum (in ClCCl): 456 nm
SMILES: CC(C)(C)c1ccc(-c2cc3c(-c4ccc(C(C)(C)C)cc4)c4cccc5c(-c6ccc(C(C)(C)C)cc6)cc6c(-c7ccc(C(C)(C)C)cc7)c7cccc2c7c3c6c54)cc1

Second part, the molecule before the results:

SMILES: CCCCCCCCOC(=O)c1cc2ccc3ccccc3c2c(C#N)c1N
- absorption maximum (in Cc1ccccc1): 435 nm

SMILES: CCOC(=O)c1csc2[n+]1[B-](F)(F)OC(c1ccc(N(C)C)cc1)=N2
- absorption maximum (in C1CCOC1): 404 nm
- absorption maximum (in CC#N): 405 nm
- absorption maximum (in Cc1ccccc1): 406 nm
- absorption maximum (in ClCCl): 412 nm

SMILES: COc1cc(Br)cc2cc(-c3cc4cc(Br)cc(OC)c4oc3=O)oc12
- absorption maximum (in CC#N): 353 nm
- absorption maximum (in CCOC(C)=O): 355 nm
- absorption maximum (in CS(C)=O): 359 nm
- absorption maximum (in Cc1ccccc1): 360 nm
- absorption maximum (in O): 359 nm

SMILES: COc1ccc(O)c(C=O)c1
- absorption maximum (in CO): 359 nm
- absorption maximum (in ClC(Cl)Cl): 364 nm

SMILES: CN1c2ccc(C(=O)c3ccccc3)cc2Sc2cc(C(=O)c3ccccc3)ccc21
- absorption maximum (in C1CCCCC1): 390 nm
- absorption maximum (in C1CCOC1): 402 nm
- absorption maximum (in CN(C)C=O): 407 nm
- absorption maximum (in Cc1ccccc1): 405 nm
- absorption maximum (in ClC(Cl)Cl): 407 nm
- absorption maximum (in ClCCl): 408 nm

SMILES: COc1ccc(-c2nc3c([nH]2)C2=CC(=O)S[C@]2(C)[C@@]2(C)SC(=O)C=C32)cc1
- absorption maximum (in CC#N): 392 nm

SMILES: CN1/C(=C/C=C(/C=C/C2=[N+](C)c3ccccc3C2(C)C)c2ccc(C(F)(F)F)cc2)C(C)(C)c2ccccc21
- absorption maximum (in CCO): 637 nm
- absorption maximum (in CO): 634 nm
- absorption maximum (in CS(C)=O): 643 nm
- absorption maximum (in O): 632 nm

SMILES: c1ccc(-c2nnc(-c3cc(-n4c5ccccc5c5ccccc54)c(-n4c5ccccc5c5ccccc54)cc3-c3nnc(-c4ccccc4)o3)o2)cc1
- absorption maximum (in ClCCl): 361 nm

SMILES: CC(C)(C)c1ccc(-c2sc3c(-c4ccc(C(C)(C)C)cc4)c4n(c3c2-c2ccc(C(C)(C)C)cc2)[B-](F)(F)[N+]2=Cc3c(-c5ccc(C(C)(C)C)cc5)c5sc(-c6ccc(C(C)(C)C)cc6)c(-c6ccc(C(C)(C)C)cc6)c5n3[B-](F)(F)[N+]2=C4)cc1
- absorption maximum (in CC#N): 574 nm
- absorption maximum (in CCCCCC): 591 nm
- absorption maximum (in CN(C)C=O): 584 nm
- absorption maximum (in Cc1ccccc1): 596 nm
- absorption maximum (in ClCCl): 591 nm

SMILES: N#Cc1cc2ccccc2[nH]1
- absorption maximum (in C1COCCO1): 281.6 nm
- absorption maximum (in CC#N): 279.69 nm

SMILES: C=CCNc1ccc2ccc3oc4cc(=[N+](C)C)ccc-4nc3c2c1
- absorption maximum (in CC#N): 569 nm
- absorption maximum (in CCO): 572 nm
- absorption maximum (in ClCCl): 582 nm
- absorption maximum (in O): 552 nm

SMILES: CCOc1ccc(/C=C/C=C/C=C/c2ccc([N+](=O)[O-])cc2)cc1
- absorption maximum (in CC1CCCCC1): 414 nm
- absorption maximum (in CC#N): 412 nm
- absorption maximum (in Cc1ccccc1): 419 nm
- absorption maximum (in ClCCl): 420 nm

SMILES: CCB1c2ccccc2Nc2ccccc21
- absorption maximum (in ClCCl): 381 nm

SMILES: Cc1ccc(C)n1-c1ccc(N(C)C)cc1
- absorption maximum (in CC#N): 306 nm
- absorption maximum (in CCCCCC): 304 nm

SMILES: N#Cc1c[nH]c2ccccc12
- absorption maximum (in C1COCCO1): 277.3 nm
- absorption maximum (in CC#N): 276.25 nm

SMILES: C=CC1CN2CCC1CC2[C@@H](OCc1ccccc1)c1ccnc2ccc(O)cc12 (some centres not stated)
- absorption maximum (in C1CCOC1): 338 nm
- absorption maximum (in CC#N): 335 nm
- absorption maximum (in CCCC#N): 337 nm
- absorption maximum (in Cc1ccccc1): 335 nm
- absorption maximum (in ClCCl): 334 nm

SMILES: CCCCCCOc1ccc2c(c1)-c1cc3c(cc1[Si]2(C)C)-c1ccccc1[Si]3(C)C
- absorption maximum (in ClCCl): 327 nm

SMILES: C(#Cc1ccccc1)C(C#Cc1ccccc1)=Cc1ccc(C=C(C#Cc2ccccc2)C#Cc2ccccc2)s1
- absorption maximum (in ClC(Cl)Cl): 468 nm

SMILES: N#Cc1ccc(/C=C2\C=C(c3ccccc3)NC2=O)cc1
- absorption maximum (in C1COCCO1): 438 nm

SMILES: COc1ccc(-c2ncccn2)cc1
- absorption maximum (in ClCCl): 283 nm

SMILES: CC(C)(C)c1ccc(-c2nc3ccccc3nc2-c2cc(-c3nc4ccccc4nc3-c3ccc(C(C)(C)C)cc3)cc(-n3c4ccccc4c4ccccc43)c2)cc1
- absorption maximum (in Cc1ccccc1): 344 nm

SMILES: CC[n+]1nc2cc3c4c(c2c2cc(F)ccc21)CCCN4CCC3
- absorption maximum (in O): 494 nm

SMILES: CCCCCCCCCCCCOc1cc2c3c(ccc4c5c(SCCCCCCCCCCCC)cc6c7c(ccc(c1c34)c75)C(=O)N(C1CCCCC1)C6=O)C(=O)N(C1CCCCC1)C2=O
- absorption maximum (in ClC(Cl)Cl): 568 nm

SMILES: O=c1oc2ccccc2cc1-c1ccc(-c2ccc(-c3cc4ccccc4oc3=O)cc2)cc1
- absorption maximum (in ClCCl): 341 nm

SMILES: F[B-]1(F)n2cccc2C(c2ccccc2)=C2C=CC=[N+]21
- absorption maximum (in Cc1ccccc1): 503 nm
- absorption maximum (in ClCCl): 500 nm

SMILES: CCCCCCCCCCCCn1cccc1/C=C/c1ccc(/C=C/c2cccn2CCCCCCCCCCCC)cc1
- absorption maximum (in Cc1ccccc1): 398 nm

SMILES: CCCCCCC(CCCCCC)N1C(=O)c2cccc3c(-c4ccc(N(C)C)cc4)ccc(c23)C1=O
- absorption maximum (in CCCCCC): 401.2 nm
- absorption maximum (in CCCCCCCCCCCCCC): 403.8 nm
- absorption maximum (in CCCCCCCCCCCO): 428.6 nm
- absorption maximum (in CCCCO): 430.2 nm
- absorption maximum (in CN(C)C=O): 433.8 nm
- absorption maximum (in Cc1ccccc1): 418.2 nm
- absorption maximum (in ClC(Cl)Cl): 426.2 nm

SMILES: CCN(CC)c1ccc2cc(/C=C/C3=C4CC/C(=C\c5cc6ccc(N(CC)CC)cc6oc5=O)C4=[O+][B-](F)(F)O3)c(=O)oc2c1
- absorption maximum (in C1COCCO1): 629 nm
- absorption maximum (in CC#N): 655 nm
- absorption maximum (in CC(C)=O): 653 nm
- absorption maximum (in CCOC(C)=O): 636 nm
- absorption maximum (in CN(C)C=O): 673 nm
- absorption maximum (in CS(C)=O): 690 nm
- absorption maximum (in Cc1ccccc1): 629 nm
- absorption maximum (in ClC(Cl)Cl): 644 nm
- absorption maximum (in ClCCl): 653 nm

SMILES: [O-]c1ccc2ccccc2c1
- absorption maximum (in O): 346 nm

SMILES: CN(C)c1ccc2nc3c(cc2c1)c(-c1ccccc1)nn3-c1ccccc1
- absorption maximum (in C1CCCCC1): 439.56 nm
- absorption maximum (in C1CCOC1): 450.05 nm
- absorption maximum (in CC#N): 449.24 nm
- absorption maximum (in CC(C)=O): 450.45 nm
- absorption maximum (in CCCCCl): 448.43 nm
- absorption maximum (in CCCCOCCCC): 444.64 nm
- absorption maximum (in CN(C)C=O): 452.69 nm

SMILES: C(=C\c1ccc(N(c2ccccc2)c2ccccc2)cc1)/c1ccc(-c2ccc(/C=C/c3ccc(N(c4ccccc4)c4ccccc4)cc3)cc2)cc1
- absorption maximum (in ClCCl): 398 nm

SMILES: CCn1c2ccccc2c2cc(/C=C/c3cc(/C=C/c4ccc5c(c4)c4ccccc4n5CC)nc(SC)n3)ccc21
- absorption maximum (in C1CCOC1): 406 nm
- absorption maximum (in CCOC(C)=O): 402 nm
- absorption maximum (in CN(C)C=O): 413 nm
- absorption maximum (in Cc1ccccc1): 405 nm
- absorption maximum (in ClCCl): 409 nm

SMILES: CN1c2ccccc2CCc2ccccc21
- absorption maximum (in CC#N): 279 nm
- absorption maximum (in CO): 278 nm

SMILES: CN(C)CCCN1c2ccccc2Sc2ccc(Cl)cc21
- absorption maximum (in CC#N): 312 nm
- absorption maximum (in CO): 311 nm
- absorption maximum (in O): 307 nm

SMILES: CNCCCN1c2ccccc2CCc2ccccc21
- absorption maximum (in CC#N): 276 nm
- absorption maximum (in CO): 276 nm
- absorption maximum (in O): 275 nm

SMILES: COc1ccc(N(c2ccc(C=C(c3ccccc3)c3ccccc3)cc2)c2ccc(C=C(c3ccccc3)c3ccccc3)cc2)cc1
- absorption maximum (in Cc1ccccc1): 397 nm

SMILES: COc1ccc(-c2cc3c(s2)c(C(=O)c2ccccc2)cc(=O)n3Cc2ccccc2)cc1
- absorption maximum (in CC#N): 406 nm
- absorption maximum (in ClCCl): 416 nm
